Reference: ChEMBL document CHEMBL1201862, “PubChem BioAssay data set” (2004)
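Method: 48-hour compound exposure of cells in 96-well plates, five concentrations, linear interpolation of endpoints. Abbreviation: GI50, concentration required for 50% inhibition of growth.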 Activity calls are given as the source filed them. Cut-off read from the data, not from the text of the source: active = GI50 up to about 1.1 µM and inactive = higher.

How the values were obtained:
Assay in all cases: growth of human tumour cells (NCI), 48 h
DU-145 = system: DU-145
HOP-92 = system: HOP-92
M14 = system: M14
MCF7 = system: MCF7
MDA-MB-435 = system: MDA-MB-435
NCI-H226 = system: NCI-H226
RXF 393 = system: RXF 393
SNB-75 = system: SNB-75
T47D = system: T47D
EKVX = system: EKVX
HL-60 = system: HL-60
HOP-62 = system: HOP-62
Malme-3M = system: Malme-3M
OVCAR-5 = system: OVCAR-5
RPMI-8226 = system: RPMI-8226
SF-539 = system: SF-539
SK-OV-3 = system: SK-OV-3
UACC-62 = system: UACC-62
DLD-1 = system: DLD-1
HOP-18 = system: HOP-18

Row | SMILES | GI50 (DU-145) | GI50 (HOP-92) | GI50 (M14) | GI50 (MCF7) | GI50 (MDA-MB-435) | GI50 (NCI-H226) | GI50 (RXF 393) | GI50 (SNB-75) | GI50 (T47D) | GI50 (EKVX) | GI50 (HL-60) | GI50 (HOP-62) | GI50 (Malme-3M) | GI50 (OVCAR-5) | GI50 (RPMI-8226) | GI50 (SF-539) | GI50 (SK-OV-3) | GI50 (UACC-62) | GI50 (DLD-1) | GI50 (HOP-18)
1 | Cc1ccc(S(=O)(=O)N2CCCN(S(=O)(=O)c3ccc(C)cc3)CC2)cc1 | > 100 µM (inactive) | > 100 µM (inactive) | > 100 µM (inactive) | > 100 µM (inactive) | > 100 µM (inactive) | > 100 µM (inactive) | > 100 µM (inactive) | > 100 µM (inactive) | > 100 µM (inactive) |  |  |  |  |  |  |  |  |  |  | 
2 | COC(=O)C1C(C(=O)OC)N(Cc2ccccc2)C(=O)N1Cc1ccccc1 (stereo not given) | > 100 µM (inactive) | > 100 µM (inactive) | > 100 µM (inactive) | 7.5 µM (inactive) | > 100 µM (inactive) | > 100 µM (inactive) | > 100 µM (inactive) | > 100 µM (inactive) | 68.9 µM (inactive) | > 100 µM (inactive) | 13.3 µM (inactive) | > 100 µM (inactive) | > 100 µM (inactive) | > 100 µM (inactive) | 35 µM (inactive) | > 100 µM (inactive) | 53.8 µM (inactive) | 64.6 µM (inactive) |  | 
3 | CC(=O)OC1(C#N)CC2OC1C1C2N=NN1C(=O)OC(C)(C)C (stereo not given) |  | 27.5 µM (inactive) | 21 µM (inactive) |  |  |  | 40.6 µM (inactive) | 31.8 µM (inactive) |  | 68.2 µM (inactive) |  | > 100 µM (inactive) | 21.9 µM (inactive) | 54.6 µM (inactive) | 39.9 µM (inactive) | 23.2 µM (inactive) |  | 19.5 µM (inactive) | 20.4 µM (inactive) | > 100 µM (inactive)
4 | CCC(C(=O)c1ccc(OC)c(OC)c1)N(C(=O)C(F)(F)F)C(C)c1ccccc1 (stereo not given) | > 100 µM (inactive) |  | > 100 µM (inactive) | > 100 µM (inactive) | > 100 µM (inactive) |  |  |  | 91 µM (inactive) | > 100 µM (inactive) | > 100 µM (inactive) | > 100 µM (inactive) | > 100 µM (inactive) | > 100 µM (inactive) | > 100 µM (inactive) |  | > 100 µM (inactive) | > 100 µM (inactive) |  | 
5 | Cc1nc2[nH]ncn2c(=O)c1CCCl | > 10 µM (inactive) |  | > 10 µM (inactive) | > 10 µM (inactive) | > 10 µM (inactive) | > 10 µM (inactive) | > 10 µM (inactive) | > 10 µM (inactive) | > 10 µM (inactive) | > 10 µM (inactive) | > 10 µM (inactive) | > 10 µM (inactive) | > 10 µM (inactive) | > 10 µM (inactive) | > 10 µM (inactive) | > 10 µM (inactive) | > 10 µM (inactive) | > 10 µM (inactive) |  | 
6 | COc1ccc(C2COc3c(ccc(O)c3C)C2)cc1OC (stereo not given) |  | 53.5 µM (inactive) |  | 81.7 µM (inactive) |  | 57.5 µM (inactive) | 24 µM (inactive) | 38.1 µM (inactive) |  | 136 µM (inactive) | 21.6 µM (inactive) | 163 µM (inactive) | 121 µM (inactive) | 119 µM (inactive) | 17.7 µM (inactive) | 106 µM (inactive) | > 187 µM (inactive) | 96.2 µM (inactive) | 42 µM (inactive) | 24.2 µM (inactive)
7 | CC(C)(O)[C@H](CCO)O[Si](c1ccccc1)(c1ccccc1)C(C)(C)C |  | 10.8 µM (inactive) | 12.2 µM (inactive) |  |  |  |  | 10.9 µM (inactive) |  | 14.2 µM (inactive) | 4.99 µM (inactive) |  | 17.1 µM (inactive) | 14.9 µM (inactive) | 10.4 µM (inactive) | 14.3 µM (inactive) | 12.1 µM (inactive) | 11.3 µM (inactive) | 8.93 µM (inactive) | 3.1 µM (inactive)
8 | COc1ccc(/C(Cl)=C(\C=O)c2ccccc2)cc1OC |  |  | 36.1 µM (inactive) |  |  | 21 µM (inactive) | 14.4 µM (inactive) | 11.6 µM (inactive) |  | 3.6 µM (inactive) | 6.78 µM (inactive) | 17.8 µM (inactive) | 61 µM (inactive) | > 100 µM (inactive) |  | 31.4 µM (inactive) | 70.3 µM (inactive) | 7.6 µM (inactive) | 15.1 µM (inactive) | 30.1 µM (inactive)
9 | C=C1C(=O)O[C@@H]2OC3(C)CCC4C(C)CCC1C42OO3 (stereo not given in full) |  | 1.85 µM (inactive) |  | 3.39 µM (inactive) |  | 11.5 µM (inactive) |  | 3.59 µM (inactive) |  | 11.4 µM (inactive) | 0.449 µM (active) | 22.1 µM (inactive) |  | 15.7 µM (inactive) | 1.42 µM (inactive) | 2.48 µM (inactive) | 20.3 µM (inactive) | 2.07 µM (inactive) | 1.93 µM (inactive) | 16.5 µM (inactive)
10 | CC(=O)OCC1OC(NC(=O)N(CCCl)N=O)C(OC(C)=O)C(OC(C)=O)C1OC(C)=O (stereo not given) |  | > 100 µM (inactive) |  | > 100 µM (inactive) |  | 3.86 µM (inactive) | > 100 µM (inactive) | 36.1 µM (inactive) |  | 54.8 µM (inactive) | > 100 µM (inactive) | > 100 µM (inactive) | > 100 µM (inactive) | > 100 µM (inactive) | > 100 µM (inactive) | > 89.1 µM (inactive) | > 100 µM (inactive) | 43.9 µM (inactive) | > 100 µM (inactive) | > 100 µM (inactive)
11 | COc1ccc(-c2oc3cc(OC(C)=O)cc(OC(C)=O)c3c(=O)c2OC)cc1 | 15.5 µM (inactive) |  | 14.5 µM (inactive) | 20.7 µM (inactive) | 10.4 µM (inactive) |  |  |  | 19.7 µM (inactive) | 13.9 µM (inactive) | 12.1 µM (inactive) | 18.1 µM (inactive) | 26.5 µM (inactive) | 23.3 µM (inactive) | 12.5 µM (inactive) |  | 28.8 µM (inactive) | 4.19 µM (inactive) |  | 
12 | NC(CCCCCP(=O)(O)O)C(=O)O (stereo not given) [AP-7] | > 100 µM (inactive) | > 100 µM (inactive) | > 100 µM (inactive) |  | > 100 µM (inactive) |  | > 100 µM (inactive) | > 100 µM (inactive) | 83.8 µM (inactive) | > 100 µM (inactive) | > 100 µM (inactive) |  |  | > 100 µM (inactive) | > 100 µM (inactive) | > 100 µM (inactive) | > 100 µM (inactive) | 80.7 µM (inactive) |  | 
